Experimental data reported in PubChem BioAssay (NCI).
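These data come from cells grown in 96-well plates and exposed to compound for 48 hours at five concentrations. GI50 = concentration required for 50% inhibition of growth. TGI is the concentration that stops growth completely.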

What was measured:
Assay in all cases: NCI anticancer screen, dose series, 48 h
RXF 393 renal = tested on: RXF 393 renal
NCI-H460 lung = tested on: NCI-H460 lung
A498 renal = tested on: A498 renal
HOP-92 NSCLC = tested on: HOP-92 NSCLC
UACC-62 melanoma = tested on: UACC-62 melanoma
IGROV1 ovarian = tested on: IGROV1 ovarian
TK-10 renal = tested on: TK-10 renal
RPMI-8226 leukemia = tested on: RPMI-8226 leukemia
SNB-75 CNS = tested on: SNB-75 CNS
MDA-MB-231 breast = tested on: MDA-MB-231 breast

Row | SMILES | TGI (RXF 393 renal) [µM] | TGI (NCI-H460 lung) [µM] | TGI (A498 renal) [µM] | TGI (HOP-92 NSCLC) [µM] | TGI (UACC-62 melanoma) [µM] | TGI (IGROV1 ovarian) [µM] | TGI (TK-10 renal) [µM] | TGI (RPMI-8226 leukemia) [µM] | TGI (SNB-75 CNS) [µM] | TGI (MDA-MB-231 breast) [µM] | GI50 (RXF 393 renal) [µM] | GI50 (NCI-H460 lung) [µM] | GI50 (A498 renal) [µM] | GI50 (HOP-92 NSCLC) [µM] | GI50 (MDA-MB-231 breast) [µM] | GI50 (UACC-62 melanoma) [µM] | GI50 (IGROV1 ovarian) [µM] | GI50 (SNB-75 CNS) [µM] | GI50 (RPMI-8226 leukemia) [µM] | GI50 (TK-10 renal) [µM]
1 | COC1CC(OS(=O)(=O)c2ccc([N+](=O)[O-])cc2)C(OC(=O)c2ccccc2)C(C)O1 (stereo not drawn) | > 100 | > 100 | > 100 | > 100 | > 100 | > 100 | > 100 | > 100 |  |  |  |  |  |  |  |  |  |  |  | 
2 | CC(C)C1CC[C@@H](C)C[C@@]1(O)CC(N)=O (stereo partly drawn) |  | > 100 |  |  | > 100 | > 100 | > 100 | > 100 | > 100 |  |  |  |  |  |  |  |  |  |  | 
3 | CC(=O)OCC1OC(n2cnc(C(N)=S)c2N)C(OC(C)=O)C1OC(C)=O (stereo not drawn) |  | > 100 |  | > 100 | > 100 | > 100 | > 100 | > 100 | > 100 | > 100 |  |  |  |  |  |  |  |  |  | 
4 | CCOC(=O)N1CCN(C=S)CC1 | > 100 | > 100 | > 100 |  | > 100 | > 100 | > 100 |  | > 100 |  |  |  |  |  |  |  |  |  |  | 
5 | O=[N+]([O-])O.[Cu+2].[NH-]CC[NH-].[NH-]CC[NH-] | > 10 | > 10 | > 10 | > 10 | > 10 | > 10 |  | > 10 | > 10 | > 10 | > 10 | > 10 | > 10 | > 10 | > 10 | > 10 | > 10 | > 10 | > 10 | 
6 | COc1cc([C@@H]2OC[C@@H]3C(c4cc(OC)c5c(c4)OCO5)OC[C@@H]32)cc(OC)c1OC (stereo partly drawn) |  | > 100 | > 100 | > 100 | > 100 | > 100 | > 100 | > 100 | > 100 | > 100 |  |  |  |  |  |  |  |  |  | 
7 | Cn1cc(C(=O)NCCC(=N)N)cc1NC(=O)C1=[N+](C)C=C(NC(=O)c2cccc(C(=O)NC3=CC(C(=O)Nc4cc(C(=O)NCCC(=N)N)cn4C)=[N+](C)C3)c2)C1 | > 100 | > 100 | > 100 | > 100 | > 100 | > 100 | > 100 | > 100 | > 100 |  |  |  |  |  |  |  |  |  |  | 
8 | Nc1ccnc(=O)[nH]1 | > 100 | > 100 | > 100 | > 100 | > 100 | > 100 | > 100 | > 100 | > 100 |  |  |  |  |  |  |  |  |  |  | 
9 | CCCCNc1nc(C#N)c(N)s1 |  | > 100 |  | > 100 | > 100 | > 100 | > 100 | > 100 | > 100 |  |  |  |  |  |  |  |  |  |  | 
10 | COc1cc([N+](=O)[O-])c(OC)cc1-c1nc2sc(Cl)cn2c1/C(N)=N/C(=N)N | 16.9 | 46.7 | 48.6 | 24 | 35.3 | > 54.6 | 24.3 | 20.5 |  | 8.25 | 4.3 | 16.1 | 20.7 | 7.06 | 2.19 | 15 | 5.18 |  | 5.73 | 7.31
11 | O=C(O)C(SC(=S)c1ccc(C(=S)SC(C(=O)O)c2ccccc2)cc1)c1ccccc1 (stereo not drawn) | > 100 | > 100 | > 100 | > 100 | > 100 | > 100 | > 100 | > 100 | > 100 |  |  |  |  |  |  |  |  |  |  | 
12 | CCc1cc(C(=O)OC)cn1C(=N)c1ccc(Cl)cc1 |  | > 100 | > 100 | > 100 | > 100 | > 100 | > 100 | > 100 | > 100 |  |  |  |  |  |  |  |  |  |  | 
13 | CC(C)(C)c1ccc(Oc2nccc(-c3c(-c4ccc(F)cc4)ncn3C3CCNCC3)n2)cc1 | 7.07 | 8.21 | 7.49 |  | 7.77 | 8.01 | 8.04 | 7.97 | 6.15 | 7.39 | 3.22 | 3.91 | 3.89 |  | 3.87 | 4.25 | 3.86 | 2.89 | 3.56 | 4.4
14 | COc1cnc2c(c1)C(=O)c1c-2n(CCCn2ccnc2)c(=O)c2cc(F)ccc12 | 0.171 | 0.133 | 0.218 | 3.11 |  |  |  | 0.248 | 21.8 | 2.17 | 0.0309 | < 0.01 | 0.0508 | 0.154 | 0.35 |  |  | 0.187 | < 0.01 | 
15 | CCOc1ccc2c(c1)[n+]([O-])c(-c1ccc(Cl)cc1)c(N)[n+]2[O-] |  | > 100 | > 100 | > 100 |  | > 100 |  | > 100 | > 100 |  |  |  |  |  |  |  |  |  |  | 
16 | Cc1ccc(S(=O)(=O)N/N=C/c2c(O)ccc3ccccc23)cc1 | 42.4 | > 100 | 44.2 |  | 49.4 | 84.5 | > 100 | > 100 | 74.3 | 70.7 |  |  |  |  |  |  |  |  |  | 
17 | Cc1ccc(S(=O)(=O)OC2CSS(=O)CC2OS(=O)(=O)c2ccc(C)cc2)cc1 (stereo not drawn) | 20.8 | 46.4 | 30.1 | 25.9 | 29.2 | 32.9 | 28.5 | 27.6 | 36.2 |  |  |  |  |  |  |  |  |  |  | 
18 | CC(=O)CC(=O)OC1CC(C)CCC1C(C)C (stereo not drawn) | > 100 | > 100 | > 100 | > 100 | > 100 | > 100 | > 100 | 46.1 | > 100 |  |  |  |  |  |  |  |  |  |  | 
19 | CCN(CC)c1c(C(=O)/C=C/c2ccc(OC)cc2)c(-c2ccccc2)nn(C)c1=O | 25 | 35.4 | 46.8 | 43.4 | 28.5 | 68.8 | 99.9 |  |  |  |  |  |  |  |  |  |  |  |  | 
20 | O=C(O)CNC(=O)c1ccc(-c2ccccc2)cc1 | > 100 | > 100 | > 100 | > 100 | > 100 | > 100 | > 100 | > 100 |  | > 100 |  |  |  |  |  |  |  |  |  | 
21 | C(#Cc1ccccc1C#Cc1cccs1)c1cccs1 | > 100 | > 100 | 81.4 |  | > 100 | > 100 | > 100 |  | > 100 | 82.1 | 23.9 | 47.4 | 22 |  | 23.4 | 43.4 | > 100 | > 100 |  | 27.7
